Results from patent publication US8871788B2, “Substituted N-alkyl and N-acyl tetrahydro-isoquinoline derivatives, preparation and therapeutic use thereof” (Sanofi, priority 2010, dated 2014).

What was measured:
[1] = biological target: T1, rhesus (Macacca Mulatta) H3 receptor (Macaca mulatta, UniProt Q865E1); test: Rhesus H3 [3H]-Methylhistamine radioligand binding assay (SPA); parameters: species or system rhesus monkey (Macacca Mulatta); conditions: [3H]-Methylhistamine 2 nM, rhesus H3 membranes, Cheng-Prusoff
T1 construct: 445 amino acid H3 receptor; expressed in transfected cells; host or cells: Flp-In T-REx 293 Cell Line (Invitrogen), pcDNA5/FRT/TO, induced with tetracycline
T1 sequence (Q865E1 1-445): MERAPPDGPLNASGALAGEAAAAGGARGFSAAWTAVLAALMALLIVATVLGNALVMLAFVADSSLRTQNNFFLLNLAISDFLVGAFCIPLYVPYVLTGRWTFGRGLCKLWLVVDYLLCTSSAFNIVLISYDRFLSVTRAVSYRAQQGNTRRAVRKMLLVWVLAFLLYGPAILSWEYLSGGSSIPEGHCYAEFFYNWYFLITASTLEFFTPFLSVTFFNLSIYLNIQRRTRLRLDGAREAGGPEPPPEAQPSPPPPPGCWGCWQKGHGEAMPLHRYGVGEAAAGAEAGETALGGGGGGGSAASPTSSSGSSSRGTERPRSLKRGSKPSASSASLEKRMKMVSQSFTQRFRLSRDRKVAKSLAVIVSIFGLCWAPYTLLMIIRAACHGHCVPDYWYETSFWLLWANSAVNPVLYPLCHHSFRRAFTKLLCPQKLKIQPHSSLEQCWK
Experimental: (§1) Rhesus H3 membranes were prepared from the Flp-In T-REx 293 Cell Line (Invitrogen) stably transfected with pcDNA5/FRT/TO (Invitrogen) containing the rhesus monkey (Macacca Mulatta) 445 amino acid H3 receptor. (Genbank #AY231164). Stably transfected cultures were amplified in tissue culture flasks by standard tissue culture methods and induced to express rhesus H3 by exposure to 500 ng/ml tetracycline (Cellgro) for 24 hours. After induction, cells were dissociated from flasks utilizing Cell Stripper (Cellgro). Cells were centrifuged (1K×g, 5 min) and pellet frozen in an ethanol-dry ice bath to disrupt cell membranes. Frozen cell pellet was re-suspended in 5 mM HEPES (pH 7.4, Invitrogen) at 10 ml/1000 cm2 of harvested cells. The cell suspension was drawn through an 18 gauge needle (2-3×) followed by a 23 gauge needle (2-3×) to further disrupt cell membranes. The cell suspension was centrifuged (40K×g, 30 min). Cell membrane pellet was re-suspended in 5 mM HEPES (pH 7.4, Invitrogen) at a final protein concentration of 10 mg/ml. Rhesus H3 membranes were stored under liquid nitrogen prior to use in [3H]-Methylhistamine and GTPγS radioligand binding assays.
(§2) Rhesus H3 radioligand binding assay was performed using rhesus H3 receptor membranes (prepared as described above), [3H]-Methylhistamine (Perkin Elmer) and WGA SPA beads (wheat germ agglutinin scintillation proximity assay) beads (Amersham). The assay was performed in 96-well Opti-Plates (Packard). Each reaction contained 50 μl rhesus H3 membranes (20-30 μg total protein), 50 μl WGA SPA beads (0.1 μg) and 50 μl of 83Ci/mmol [^3H]-Methylhistamine (final concentration 2 nM) and 50 μl of tested compound. The compounds of this invention and/or vehicle were diluted with binding buffer from 10 mM DMSO stocks. Assay plates were sealed with TopSeal (Perkin Elmer) and mixed on shaker (25° C., 1 hour). Assay plates were read on TopCount scintillation counter (Packard). Results were analyzed by Hill transformation and Ki values were determined by Cheng-Prusoff equation. Similar procedure was employed to determine the binding data for rat.

[2] = test system: Rats; test: Forced-Swimming Test in Rats; type: in vivo, rat; conditions: p.o. twice, 0.1, 1, and 10 mg/kg, 6-min test
Experimental: This example further illustrates the study of efficacy of the compounds of this invention as antidepressive agents in animal models.
The procedure was a modification of that described by Porsolt et al. (1977) Depression: a new animal model sensitive to antidepressant treatments. Nature 266:730-2. Rats were placed in individual glass cylinder (40 cm height, 18 cm diameter) containing water (22-25° C.) to a height of 15 cm. Two swimming sessions were conducted (a 15-min training session followed 24 h later by a 6-min test). After each swimming session, rats were placed under a heating lamp to avoid hypothermia. The duration of immobility was measured during the 6-min test. Example 1 of this invention was administered p.o. twice (15 min pre-test followed by first injection 24 h prior to […]) at three different dosages of 0.1, 1, and 10 mg/kg. The compound is active at all of these three dosage levels.

[3] = biological target: Rat H3 (Rattus norvegicus, UniProt Q9QYN8); test: Rat H3 radioligand binding (similar procedure); conditions: rat H3, similar procedure to rhesus binding
Chain of Rat H3 (Q9QYN8 whole entry): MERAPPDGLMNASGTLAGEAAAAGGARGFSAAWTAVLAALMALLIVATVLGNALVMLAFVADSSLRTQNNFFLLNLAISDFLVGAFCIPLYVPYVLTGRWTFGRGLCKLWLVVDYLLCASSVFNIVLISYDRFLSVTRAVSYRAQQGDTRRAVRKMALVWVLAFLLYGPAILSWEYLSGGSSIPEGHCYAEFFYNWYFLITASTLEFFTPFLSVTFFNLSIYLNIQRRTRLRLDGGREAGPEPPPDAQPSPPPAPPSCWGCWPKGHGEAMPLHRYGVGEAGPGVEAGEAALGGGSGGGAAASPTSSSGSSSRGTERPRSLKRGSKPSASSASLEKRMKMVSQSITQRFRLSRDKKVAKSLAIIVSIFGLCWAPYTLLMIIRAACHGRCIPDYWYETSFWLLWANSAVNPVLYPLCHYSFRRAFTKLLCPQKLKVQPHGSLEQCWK
Experimental: as §2

[4] = biological target: T2, rhesus H3 (Macaca mulatta, UniProt Q865E1); test: GTPγS radioligand binding assay, rhesus H3 constitutive functional activity in cell membranes; type: biochemical, rhesus monkey (Macacca Mulatta); conditions: relative to basal levels
T2 construct: 445 amino acid H3 receptor; expressed in transfected cells; host or cells: Flp-In T-REx 293 Cell Line (Invitrogen), pcDNA5/FRT/TO, induced with tetracycline
T2 sequence (Q865E1 1-445): as the sequence (Q865E1 1-445) above
Experimental: as §1

Ki [1] | Ki [3] | GTPγS-35 ASSAY % Inverse Agonism [4] | SMILES | activity in forced-swimming test (duration of immobility) [2]
1.2 nM | 3.6 nM | – | C[C@H]1CCCN1[C@H]1CCN(c2ccc3c(c2)CCN(C2CCOCC2)C3=O)C1 [Example 1, 6-((2S,3′S)-2-Methyl-[1,3′]bipyrrolidinyl-1′-yl)-2-(tetrahydro-pyran-4-yl)-3,4-dihydro-2H-isoquinolin-1-one] | active
74 nM | 330 nM | −16.1% | C[C@H]1CCCN1[C@H]1CCN(c2ccc3c(c2)CCN(C(=O)Nc2ccc(-c4ccccc4)cc2)C3)C1 [Example 26, 6-((2S,3′S)-2-Methyl-[1,3′]bipyrrolidinyl-1′-yl)-3,4-dihydro-1H-isoquinoline-2-carboxylic acid biphenyl-4-ylamide] | –
0.57 nM | 0.59 nM | −40.0% | CCOC(=O)C1CCC(N2CCc3cc(N4CC[C@H](N5CCC[C@@H]5C)C4)ccc3C2)CC1 (stereo partly drawn) [Example 5, 4-[6-((2S,3′S)-2-Methyl-[1,3′]bipyrrolidinyl-1′-yl)-3,4-dihydro-1H-isoquinolin-2-yl]-cyclohexanecarboxylic acid ethyl ester] | –

SMILES | Ki [1] | Ki [3] | GTPγS-35 ASSAY % Inverse Agonism [4] | activity in forced-swimming test (duration of immobility) [2]
CC(C)N1CCc2cc(N3CC[C@H](N4CCC[C@@H]4C)C3)ccc2C1 [Example 10, 2-Isopropyl-6-((2S,3′S)-2-methyl-[1,3′]bipyrrolidinyl-1′-yl)-1,2,3,4-tetrahydro-isoquinoline] | 0.75 nM | 0.91 nM | −9.3% | –
